{
  "source": "ChEMBL document CHEMBL3886981",
  "about": "“Phenylpyrazole derivatives as potent ROCK1 and ROCK2 inhibitors” (2016)",
  "biological_target": "Rho-associated protein kinase 2 (Homo sapiens, UniProt O75116)",
  "sequence (O75116 whole entry, looked up, change not shown)": "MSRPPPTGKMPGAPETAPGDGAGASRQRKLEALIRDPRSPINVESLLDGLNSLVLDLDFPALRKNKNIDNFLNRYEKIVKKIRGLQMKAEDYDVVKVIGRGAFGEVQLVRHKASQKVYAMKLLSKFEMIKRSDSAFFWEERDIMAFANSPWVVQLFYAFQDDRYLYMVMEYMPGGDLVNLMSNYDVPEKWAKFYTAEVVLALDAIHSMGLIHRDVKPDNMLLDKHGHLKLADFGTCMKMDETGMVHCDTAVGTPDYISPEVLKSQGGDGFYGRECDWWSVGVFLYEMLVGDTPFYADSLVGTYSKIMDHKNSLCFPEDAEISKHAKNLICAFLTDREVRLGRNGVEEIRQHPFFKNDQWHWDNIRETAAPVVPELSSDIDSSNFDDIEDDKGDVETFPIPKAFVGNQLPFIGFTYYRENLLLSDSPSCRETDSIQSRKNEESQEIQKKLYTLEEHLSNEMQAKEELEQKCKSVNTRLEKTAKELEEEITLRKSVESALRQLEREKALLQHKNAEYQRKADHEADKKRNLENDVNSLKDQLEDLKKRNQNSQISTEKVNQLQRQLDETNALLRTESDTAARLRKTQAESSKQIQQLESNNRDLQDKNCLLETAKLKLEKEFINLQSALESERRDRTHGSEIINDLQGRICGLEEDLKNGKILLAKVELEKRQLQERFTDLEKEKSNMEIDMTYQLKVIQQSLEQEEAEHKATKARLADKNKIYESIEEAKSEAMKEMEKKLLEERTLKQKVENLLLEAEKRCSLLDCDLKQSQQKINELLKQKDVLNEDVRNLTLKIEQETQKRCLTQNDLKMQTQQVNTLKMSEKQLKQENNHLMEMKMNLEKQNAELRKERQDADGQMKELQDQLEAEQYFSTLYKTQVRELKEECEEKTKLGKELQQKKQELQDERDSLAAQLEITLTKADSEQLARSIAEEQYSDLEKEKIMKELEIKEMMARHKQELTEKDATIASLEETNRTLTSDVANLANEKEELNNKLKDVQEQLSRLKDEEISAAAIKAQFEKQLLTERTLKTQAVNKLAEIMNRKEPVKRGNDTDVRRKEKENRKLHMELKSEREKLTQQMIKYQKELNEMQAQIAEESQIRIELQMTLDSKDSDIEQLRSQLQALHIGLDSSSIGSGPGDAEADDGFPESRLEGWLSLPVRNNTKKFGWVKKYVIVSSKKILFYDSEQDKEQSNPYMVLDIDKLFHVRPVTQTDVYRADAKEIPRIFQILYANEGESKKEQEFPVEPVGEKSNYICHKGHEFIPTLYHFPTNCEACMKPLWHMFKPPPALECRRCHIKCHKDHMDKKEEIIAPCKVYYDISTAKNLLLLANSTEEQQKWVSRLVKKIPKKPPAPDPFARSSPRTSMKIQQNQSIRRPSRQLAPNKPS",
  "test": "In Vitro Assay: The effectiveness of compounds of the present invention as ROCK inhibitors can be determined in a 30 μL assay containing 20 mM HEPES, pH 7.5, 20 mM MgCl2, 0.015% Brij-35, 4 mM DTT, 5 μM ATP and 1.5 μM peptide substrate (FITC-AHA-[…]-OH). Compounds were dissolved in DMSO so that the final concentration of DMSO was <2%, and the reaction was initiated with Rho kinase variants. After incubation, the reaction was terminated by the addition of EDTA and the phosphorylated and non-phosphorylated peptides separated using a LABCHIP® 3000 Reader (Caliper Life Sciences).",
  "data": [
    {"smiles": "COc1cc(C(=O)NCC2=CCC3NC(=O)NC3=C2)ccc1-c1cn[nH]c1", "note": "(stereo unspecified)", "values": [
      {"measurement": "IC50", "result": 662, "unit": "nM"}
    ]}
  ]
}
